{"source": "paper PMC5218480", "about": "(PLoS ONE, 2017)", "system": "MV-4-11 cells", "test": "Gene expression microarray analysis (Affymetrix PrimeView) and GSEA", "type": "cell-based, human", "set-up": "RFU PODN (11730768_x_at) / Fold change /veh PODN (11730768_x_at) / RFU LINC00158 (11744669_a_at) / Fold change /veh LINC00158 (11744669_a_at) / RFU DUSP10 (11751237_a_at) / Fold change /veh DUSP10 (11751237_a_at) / RFU ID3 (11757404_x_at) / Fold change /veh ID3 (11757404_x_at) / RFU PLEKHG5 (11737974_s_at) / Fold change /veh PLEKHG5 (11737974_s_at) / RFU LRRC4B (11730491_at) / Fold change /veh LRRC4B (11730491_at) / RFU GIMAP4 (11747438_a_at) / Fold change /veh GIMAP4 (11747438_a_at) / RFU KRT8 (11758183_x_at) / Fold change /veh KRT8 (11758183_x_at) / RFU CNN1 (11734310_a_at) / Fold change /veh CNN1 (11734310_a_at) / RFU VPS37D (11726825_at) / Fold change /veh VPS37D (11726825_at) / RFU C10orf10 (11716522_x_at) / Fold change /veh C10orf10 (11716522_x_at) / RFU KIR2DL2 /// KIR2DL4 /// KIR2DL5A /// KIR2DL5B /// KIR2DS1 /// KIR2DS2 /// KIR2DS3 /// KIR2DS4 /// KIR3DL3 /// KIR3DL3 /// KIR3DS1 (11738374_at) / Fold change /veh KIR2DL2 /// KIR2DL4 /// KIR2DL5A /// KIR2DL5B /// KIR2DS1 /// KIR2DS2 /// KIR2DS3 /// KIR2DS4 /// KIR3DL3 /// KIR3DL3 /// KIR3DS1 (11738374_at) / RFU C1QL1 (11718748_at) / Fold change /veh C1QL1 (11718748_at) / RFU TMPRSS4 (11747572_a_at) / Fold change /veh TMPRSS4 (11747572_a_at) / RFU HAMP (11756126_x_at) / Fold change /veh HAMP (11756126_x_at) / RFU RNFT2 (11725882_a_at) / Fold change /veh RNFT2 (11725882_a_at) / RFU NR4A2 (11747474_a_at) / Fold change /veh NR4A2 (11747474_a_at) / RFU ABCC12 (11746883_a_at) / Fold change /veh ABCC12 (11746883_a_at) / RFU TMEM136 (11760407_x_at) / Fold change /veh TMEM136 (11760407_x_at) / RFU CLDN22 /// WWC2 (11732394_at) / Fold change /veh CLDN22 /// WWC2 (11732394_at) / RFU HLA-DPB1 (11760878_x_at) / Fold change /veh HLA-DPB1 (11760878_x_at) / RFU SPINT1 (11716480_a_at) / Fold change /veh SPINT1 (11716480_a_at) / RFU GAP43 (11754022_s_at) / Fold change /veh GAP43 (11754022_s_at) / RFU A4GNT (11735810_at) / Fold change /veh A4GNT (11735810_at) / RFU PRB3 (11715151_x_at) / Fold change /veh PRB3 (11715151_x_at) / RFU TUBB4B (11761932_at) / Fold change /veh TUBB4B (11761932_at) / RFU CAPN14 (11732068_a_at) / Fold change /veh CAPN14 (11732068_a_at) / RFU TMCC2 (11721928_a_at) / Fold change /veh TMCC2 (11721928_a_at) / RFU IRGQ (11745062_a_at) / Fold change /veh IRGQ (11745062_a_at) / RFU FAM174B (11720279_a_at) / Fold change /veh FAM174B (11720279_a_at) / RFU TMPRSS4 (11748680_a_at) / Fold change /veh TMPRSS4 (11748680_a_at) / RFU FAM212B (11763350_a_at) / Fold change /veh FAM212B (11763350_a_at) / RFU PLEKHG5 (11743358_a_at) / Fold change /veh PLEKHG5 (11743358_a_at) / RFU ZSCAN30 (11745921_a_at) / Fold change /veh ZSCAN30 (11745921_a_at) / RFU CMKLR1 (11741424_a_at) / Fold change /veh CMKLR1 (11741424_a_at) / RFU LOC101060620 /// MAPK8IP1 (11723275_at) / Fold change /veh LOC101060620 /// MAPK8IP1 (11723275_at) / RFU SPTSSB (11747773_x_at) / Fold change /veh SPTSSB (11747773_x_at) / RFU PRSS12 (11739890_at) / Fold change /veh PRSS12 (11739890_at) / RFU BIN1 (11741810_x_at) / Fold change /veh BIN1 (11741810_x_at) / RFU WNT11 (11732464_a_at) / Fold change /veh WNT11 (11732464_a_at) / RFU C10orf10 (11716521_a_at) / Fold change /veh C10orf10 (11716521_a_at) / RFU C5orf56 (11738089_at) / Fold change /veh C5orf56 (11738089_at) / RFU CYB561 (11721691_x_at) / Fold change /veh CYB561 (11721691_x_at) / RFU ANKRD19P (11752326_a_at) / Fold change /veh ANKRD19P (11752326_a_at) / RFU OR2T12 /// OR2T33 /// OR2T8 (11738714_s_at) / Fold change /veh OR2T12 /// OR2T33 /// OR2T8 (11738714_s_at) / RFU VCAN (11748164_a_at) / Fold change /veh VCAN (11748164_a_at) / RFU JSRP1 (11732532_at) / Fold change /veh JSRP1 (11732532_at) / RFU KRTAP10-11 (11738290_x_at) / Fold change /veh KRTAP10-11 (11738290_x_at) / RFU MYO3A (11730013_a_at) / Fold change /veh MYO3A (11730013_a_at) / RFU EBF3 (11725865_a_at) / Fold change /veh EBF3 (11725865_a_at) / RFU CAMK2N1 (11719241_x_at) / Fold change /veh CAMK2N1 (11719241_x_at) / RFU C5orf56 (11738088_a_at) / Fold change /veh C5orf56 (11738088_a_at) / RFU OLFML3 (11715873_a_at) / Fold change /veh OLFML3 (11715873_a_at) / RFU LOC100653217 /// NTM (11731650_a_at) / Fold change /veh LOC100653217 /// NTM (11731650_a_at) / RFU MAPK11 (11762145_a_at) / Fold change /veh MAPK11 (11762145_a_at) / RFU FIZ1 (11724087_x_at) / Fold change /veh FIZ1 (11724087_x_at) / RFU OASL (11726364_x_at) / Fold change /veh OASL (11726364_x_at) / RFU SOX15 (11748057_x_at) / Fold change /veh SOX15 (11748057_x_at) / RFU CD79A (11719716_a_at) / Fold change /veh CD79A (11719716_a_at) / RFU HIST1H1D (11736915_at) / Fold change /veh HIST1H1D (11736915_at) / RFU CASKIN2 (11723855_a_at) / Fold change /veh CASKIN2 (11723855_a_at) / RFU LOC730098 (11760151_x_at) / Fold change /veh LOC730098 (11760151_x_at) / RFU OR4N2 (11742367_at) / Fold change /veh OR4N2 (11742367_at) / RFU PRRT2 (11749266_a_at) / Fold change /veh PRRT2 (11749266_a_at) / RFU SNX32 (11753110_a_at) / Fold change /veh SNX32 (11753110_a_at) / RFU CDHR5 (11726645_a_at) / Fold change /veh CDHR5 (11726645_a_at) / RFU RCAN1 (11760418_a_at) / Fold change /veh RCAN1 (11760418_a_at) / RFU FAM167A (11723789_a_at) / Fold change /veh FAM167A (11723789_a_at) / RFU FAM26E (11764081_at) / Fold change /veh FAM26E (11764081_at) / RFU ISYNA1 (11749810_s_at) / Fold change /veh ISYNA1 (11749810_s_at) / RFU ACY1 (11761880_at) / Fold change /veh ACY1 (11761880_at) / RFU 11764098_at / Fold change /veh 11764098_at / RFU SAMD14 (11745864_x_at) / Fold change /veh SAMD14 (11745864_x_at) / RFU NPB (11741838_a_at) / Fold change /veh NPB (11741838_a_at) / RFU TMPRSS6 (11731388_a_at) / Fold change /veh TMPRSS6 (11731388_a_at) / RFU KRTAP10-2 (11738614_at) / Fold change /veh KRTAP10-2 (11738614_at) / RFU ARHGAP8 /// PRR5-ARHGAP8 (11727945_x_at) / Fold change /veh ARHGAP8 /// PRR5-ARHGAP8 (11727945_x_at) / RFU KRTAP5-7 /// NADSYN1 (11734609_at) / Fold change /veh KRTAP5-7 /// NADSYN1 (11734609_at) / RFU RASL12 (11751679_a_at) / Fold change /veh RASL12 (11751679_a_at) / RFU CDKN2B (11736163_a_at) / Fold change /veh CDKN2B (11736163_a_at) / RFU PRF1 (11729649_at) / Fold change /veh PRF1 (11729649_at) / RFU, ZNF638 /// ZNF638-IT1 / Fold change vs veh, ZNF638 /// ZNF638-IT1 / RFU, PANK3 / Fold change vs veh, PANK3 / RFU, SH3YL1 / Fold change vs veh, SH3YL1 / RFU, ZEB2 / Fold change vs veh, ZEB2 / RFU, NRIP1 / Fold change vs veh, NRIP1 / RFU, PTTG1IP / Fold change vs veh, PTTG1IP / RFU, CAPN2 / Fold change vs veh, CAPN2 / RFU, MED14 / Fold change vs veh, MED14 / RFU, SNORA58 / Fold change vs veh, SNORA58 / RFU, C1orf63 / Fold change vs veh, C1orf63 / RFU, LRRFIP1 / Fold change vs veh, LRRFIP1 / RFU, NDUFAF7 / Fold change vs veh, NDUFAF7 / RFU, SLC12A2 / Fold change vs veh, SLC12A2 / RFU, IBTK / Fold change vs veh, IBTK / RFU, ESF1 / Fold change vs veh, ESF1 / Fold change vs veh, TMEM50B / RFU, TAOK1 / Fold change vs veh, TAOK1 / RFU, ACBD3 / Fold change vs veh, ACBD3 / RFU, TMA16 / Fold change vs veh, TMA16 / RFU, RWDD3 / Fold change vs veh, RWDD3 / RFU, BCAT1 / Fold change vs veh, BCAT1 / RFU, EDEM3 / Fold change vs veh, EDEM3 / RFU, TMEM33 / Fold change vs veh, TMEM33 / RFU, WDR75 / Fold change vs veh, WDR75 / RFU, AHCTF1 / Fold change vs veh, AHCTF1 / RFU, TFRC / Fold change vs veh, TFRC / RFU, ZDHHC17 / Fold change vs veh, ZDHHC17 / RFU, NOM1 / Fold change vs veh, NOM1 / RFU, ARL8B / Fold change vs veh, ARL8B / RFU, ZBTB11 / Fold change vs veh, ZBTB11 / RFU, TAMM41 / Fold change vs veh, TAMM41 / RFU, KIAA1704 /// LOC100996395 / Fold change vs veh, KIAA1704 /// LOC100996395 / RFU, ING1 / Fold change vs veh, ING1 / RFU, TRMT61B / Fold change vs veh, TRMT61B / RFU, FUBP3 / Fold change vs veh, FUBP3 / RFU, TP53 / Fold change vs veh, TP53 / RFU, TNKS2 / Fold change vs veh, TNKS2 / RFU, ZFP14 / Fold change vs veh, ZFP14 / RFU, ACTR2 / Fold change vs veh, ACTR2 / RFU, PPP3R1 / Fold change vs veh, PPP3R1 / RFU, PIK3R1 / Fold change vs veh, PIK3R1 / RFU, HNRNPA1 / Fold change vs veh, HNRNPA1 / RFU, RNF170 / Fold change vs veh, RNF170 / RFU, ZNF28 / Fold change vs veh, ZNF28 / RFU, RNGTT / Fold change vs veh, RNGTT / RFU, OGT / Fold change vs veh, OGT / RFU, BRD1 / Fold change vs veh, BRD1 / RFU, MARS / Fold change vs veh, MARS / RFU, ZNF655 / Fold change vs veh, ZNF655 / RFU, FAHD1 / Fold change vs veh, FAHD1 / RFU, BDP1 / Fold change vs veh, BDP1 / RFU, LRRCC1 / Fold change vs veh, LRRCC1 / RFU, ARID1A / Fold change vs veh, ARID1A / RFU, ZNF146 / Fold change vs veh, ZNF146 / RFU, ZNF330 / Fold change vs veh, ZNF330 / RFU, GPN3 / Fold change vs veh, GPN3 / RFU, C9orf123 / Fold change vs veh, C9orf123 / RFU, N4BP2L2 / Fold change vs veh, N4BP2L2 / RFU, ARFIP1 / Fold change vs veh, ARFIP1 / RFU, FAM179B / Fold change vs veh, FAM179B / RFU, BCL10 / Fold change vs veh, BCL10 / RFU, UHRF1BP1L / Fold change vs veh, UHRF1BP1L / RFU, BET1 / Fold change vs veh, BET1 / RFU, CNOT2 / Fold change vs veh, CNOT2 / RFU, ZNF268 / Fold change vs veh, ZNF268 / Fold change vs veh, ZNF507 / RFU, DGCR2 / Fold change vs veh, DGCR2 / RFU, WDSUB1 / Fold change vs veh, WDSUB1 / Fold change vs veh, HSP90B1 /// MIR3652 / RFU, ADSS / Fold change vs veh, ADSS / RFU, GK / Fold change vs veh, GK / RFU, ZNF148 / Fold change vs veh, ZNF148 / RFU, TAF9 / Fold change vs veh, TAF9 / RFU, SLC1A5 / Fold change vs veh, SLC1A5 / RFU, SLMO2 / Fold change vs veh, SLMO2 / RFU, ABCC4 / Fold change vs veh, ABCC4 / RFU, LOC101060439 /// RAP1B / Fold change vs veh, LOC101060439 /// RAP1B / RFU, RFX7 / Fold change vs veh, RFX7 / RFU, GTPBP10 / Fold change vs veh, GTPBP10 / RFU, CNEP1R1 / Fold change vs veh, CNEP1R1 / RFU, BIVM-ERCC5 /// ERCC5 / Fold change vs veh, BIVM-ERCC5 /// ERCC5 / RFU, ILF3 / Fold change vs veh, ILF3 / RFU 11762660_at / Fold change /veh 11762660_at / RFU VCAN (11757783_s_at) / Fold change /veh VCAN (11757783_s_at) / RFU DDX43 (11728927_at) / Fold change /veh DDX43 (11728927_at) / RFU KRT8 (11758188_x_at) / Fold change /veh KRT8 (11758188_x_at) / RFU NKD1 (11759106_at) / Fold change /veh NKD1 (11759106_at) / RFU SRD5A1 (11742802_a_at) / Fold change /veh SRD5A1 (11742802_a_at) / RFU TPSAB1 /// TPSB2 (11721975_s_at) / Fold change /veh TPSAB1 /// TPSB2 (11721975_s_at) / RFU GSTM3 (11746129_a_at) / Fold change /veh GSTM3 (11746129_a_at) / RFU IL23R (11737362_x_at) / Fold change /veh IL23R (11737362_x_at) / RFU TMEM51 (11727254_a_at) / Fold change /veh TMEM51 (11727254_a_at) / RFU PIWIL2 (11732686_x_at) / Fold change /veh PIWIL2 (11732686_x_at) / RFU ORM1 (11744905_x_at) / Fold change /veh ORM1 (11744905_x_at) / RFU CCDC152 (11743942_at) / Fold change /veh CCDC152 (11743942_at) / RFU ECM1 (11717891_a_at) / Fold change /veh ECM1 (11717891_a_at) / RFU IL23R (11748794_a_at) / Fold change /veh IL23R (11748794_a_at) / RFU TNFAIP8L3 (11732012_x_at) / Fold change /veh TNFAIP8L3 (11732012_x_at) / RFU MBOAT4 (11741988_at) / Fold change /veh MBOAT4 (11741988_at) / RFU 11764193_at / Fold change /veh 11764193_at / RFU TMEM53 (11763286_at) / Fold change /veh TMEM53 (11763286_at) / RFU MAGEB2 (11727129_at) / Fold change /veh MAGEB2 (11727129_at) / RFU TMEM200A (11744735_a_at) / Fold change /veh TMEM200A (11744735_a_at) / RFU CCDC152 (11751479_a_at) / Fold change /veh CCDC152 (11751479_a_at) / RFU FAM211A (11726209_a_at) / Fold change /veh FAM211A (11726209_a_at) / RFU RGS16 (11746705_a_at) / Fold change /veh RGS16 (11746705_a_at) / RFU VCAN (11755009_s_at) / Fold change /veh VCAN (11755009_s_at) / RFU RHOB (11743442_s_at) / Fold change /veh RHOB (11743442_s_at) / RFU RGS16 (11720943_a_at) / Fold change /veh RGS16 (11720943_a_at) / RFU RGS16 (11720944_at) / Fold change /veh RGS16 (11720944_at) / RFU, VPS4B / Fold change vs veh, VPS4B / RFU, CREB1 / Fold change vs veh, CREB1 / RFU, DNAJC13 / Fold change vs veh, DNAJC13 / RFU, GNAQ / Fold change vs veh, GNAQ / RFU, CDK5R1 / Fold change vs veh, CDK5R1 / RFU, ZRANB3 / Fold change vs veh, ZRANB3 / RFU, CUL4A / Fold change vs veh, CUL4A / RFU, CCNY / Fold change vs veh, CCNY / RFU, UFL1 / Fold change vs veh, UFL1 / RFU, COG3 / Fold change vs veh, COG3 / RFU, DIAPH2 / Fold change vs veh, DIAPH2 / RFU, SKA2 / Fold change vs veh, SKA2 / RFU, AFF3 / Fold change vs veh, AFF3 / RFU, LMF1 / Fold change vs veh, LMF1 / RFU, IPO11 / Fold change vs veh, IPO11 / RFU, DFFB / Fold change vs veh, DFFB / RFU, FOXP1 / Fold change vs veh, FOXP1 / RFU, CARD8 / Fold change vs veh, CARD8 / RFU, STRN3 / Fold change vs veh, STRN3 / RFU, ADK / Fold change vs veh, ADK / RFU, RASSF2 / Fold change vs veh, RASSF2 / RFU, WIPF1 / Fold change vs veh, WIPF1 / RFU, LARP1B / Fold change vs veh, LARP1B / RFU, RASA1 / Fold change vs veh, RASA1 / RFU, RB1 / Fold change vs veh, RB1 / RFU, PPFIA1 / Fold change vs veh, PPFIA1 / RFU, MAT2A / Fold change vs veh, MAT2A / RFU, CCT5 / Fold change vs veh, CCT5 / RFU, WDR92 / Fold change vs veh, WDR92 / RFU, CUX1 / Fold change vs veh, CUX1 / RFU, TTC7A / Fold change vs veh, TTC7A / RFU, TMEM135 / Fold change vs veh, TMEM135 / RFU, DEPTOR / Fold change vs veh, DEPTOR / RFU, CPM / Fold change vs veh, CPM / RFU, DNAJB6 / Fold change vs veh, DNAJB6 / RFU, CACNA2D3 / Fold change vs veh, CACNA2D3 / RFU, DTX4 / Fold change vs veh, DTX4 / RFU, TFCP2 / Fold change vs veh, TFCP2 / RFU, GMCL1 /// GMCL1P1 / Fold change vs veh, GMCL1 /// GMCL1P1 / RFU, AEBP2 / Fold change vs veh, AEBP2 / RFU, SNHG1 /// SNORD22 /// SNORD25 /// SNORD26 /// SNORD27 /// SNORD28 /// SNORD29 /// SNORD31 / Fold change vs veh, SNHG1 /// SNORD22 /// SNORD25 /// SNORD26 /// SNORD27 /// SNORD28 /// SNORD29 /// SNORD31 / Fold change (Aza/veh), C12orf56 (ProbeSet 11735607_a_at) / Fold change (ACY-1035/veh), C12orf56 (ProbeSet 11735607_a_at) / Fold change (Aza/veh), FGFR1OP (ProbeSet 11751329_s_at) / Fold change (ACY-1035/veh), FGFR1OP (ProbeSet 11751329_s_at) / Fold change (Aza/veh), VPS36 (ProbeSet 11739960_a_at) / Fold change (ACY-1035/veh), VPS36 (ProbeSet 11739960_a_at) / RFU SYPL1 (11715823_x_at) / Fold change /veh SYPL1 (11715823_x_at) / RFU IGFBP7 (11715501_s_at) / Fold change /veh IGFBP7 (11715501_s_at) / RFU REEP3 (11722064_at) / Fold change /veh REEP3 (11722064_at) / RFU IGLL1 (11728026_x_at) / Fold change /veh IGLL1 (11728026_x_at): dose or concentration left out as unconfirmed", "conditions": "ProbeSet 11755425_a_at; LIST B"}
{"smiles": "Nc1ncn([C@@H]2O[C@H](CO)[C@@H](O)[C@H]2O)c(=O)n1", "note": "[azacitidine]", "values": [{"measurement": "RFU, FAM179B", "result": 66.28, "unit": "RFU"}]}
